The values that follow come from article PMC9032380, “Functional exploration of the glycoside hydrolase family GH113” (PLoS ONE, 2022).

Common to all, as to assay: HPAEC-PAD of hydrolysis products
Common to all, as to assay type: biochemical

Experiment [1] addresses T1, AGY82530 (Carnobacterium inhibens, UniProt A0ABR7TC15).
T1 construct: gene GLO26_06385; predicted GH113 catalytic domain; no signal peptide predicted; N-terminal His6 tag (pHTP1), E. coli BL21(DE3); codon-optimised synthetic gene
T1 sequence (A0ABR7TC15 1-309): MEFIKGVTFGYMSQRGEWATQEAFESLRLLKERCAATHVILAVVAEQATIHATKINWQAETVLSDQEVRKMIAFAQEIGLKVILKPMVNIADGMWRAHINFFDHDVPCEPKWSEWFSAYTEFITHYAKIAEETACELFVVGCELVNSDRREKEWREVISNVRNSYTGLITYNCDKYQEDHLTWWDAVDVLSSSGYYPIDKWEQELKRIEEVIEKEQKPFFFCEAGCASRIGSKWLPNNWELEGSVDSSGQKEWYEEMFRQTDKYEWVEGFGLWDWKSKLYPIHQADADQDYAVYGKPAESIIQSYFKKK
The note with it: […] M6, […] phosphate pH […] C; overnight incubation.

The target in experiment [2] is T2, AIQ46016 (Paenibacillus sp. FSL R7-0273, UniProt A0A089KA84).
T2 construct: gene R70723_09070; predicted GH113 catalytic domain; no signal peptide predicted; N-terminal His6 tag (pHTP1), E. coli BL21(DE3); codon-optimised synthetic gene
T2 sequence (A0A089KA84 1-318): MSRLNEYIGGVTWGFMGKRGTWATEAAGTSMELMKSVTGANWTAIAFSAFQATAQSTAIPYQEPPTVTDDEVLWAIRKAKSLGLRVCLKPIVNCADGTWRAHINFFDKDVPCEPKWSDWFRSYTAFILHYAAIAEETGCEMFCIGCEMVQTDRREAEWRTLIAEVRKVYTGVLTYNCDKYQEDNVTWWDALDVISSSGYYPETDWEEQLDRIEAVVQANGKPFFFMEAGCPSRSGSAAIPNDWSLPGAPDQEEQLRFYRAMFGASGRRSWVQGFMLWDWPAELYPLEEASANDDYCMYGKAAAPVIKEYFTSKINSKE
Conditions: […] M6, […] phosphate pH […] C; overnight incubation.

For experiment [3], the target named is T3, EDP22100 (Faecalibacterium prausnitzii, UniProt A8S9T0).
T3 construct: gene FAEPRAM212_01134; predicted GH113 catalytic domain; no signal peptide predicted; N-terminal His6 tag (pHTP1), E. coli BL21(DE3); codon-optimised synthetic gene
T3 sequence (A8S9T0 1-309): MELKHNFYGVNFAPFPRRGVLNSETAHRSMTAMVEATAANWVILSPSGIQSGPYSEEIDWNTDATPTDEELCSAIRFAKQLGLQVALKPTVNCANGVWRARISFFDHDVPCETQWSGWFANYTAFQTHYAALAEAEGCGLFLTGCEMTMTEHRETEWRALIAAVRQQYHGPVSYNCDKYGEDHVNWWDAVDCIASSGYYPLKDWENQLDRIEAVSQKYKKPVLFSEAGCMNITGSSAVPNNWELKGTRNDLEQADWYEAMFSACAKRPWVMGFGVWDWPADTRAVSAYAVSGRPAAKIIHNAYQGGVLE
Conditions: 100 uM M6, 10 mM phosphate pH 7.5, 25 C; reaction time course.

As to `OC[C@H]1O[C@@H](O[C@H]2[C@H](O)[C@H](O)[C@H](O[C@H]3[C@H](O)[C@H](O)[C@H](O[C@H]4[C@H](O)[C@H](O)[C@H](O[C@H]5[C@H](O)[C@H](O)[C@H](O[C@H]6[C@H](O)[C@H](O)C(O)O[C@@H]6CO)O[C@@H]5CO)O[C@@H]4CO)O[C@@H]3CO)O[C@@H]2CO)[C@@H](O)[C@@H](O)[C@@H]1O` (stereo partly drawn) [M6, mannohexaose], the “HPAEC-PAD of hydrolysis products” value in experiment [1] is “end-products released by AGY82530, AGF59019, AIQ46016 and AIQ63165 after overnight incubation with M6”; in experiment [2], “end-products released by AGY82530, AGF59019, AIQ46016 and AIQ63165 after overnight incubation with M6”; in experiment [3] it was “confirming the release of mannose from mannohexaose (M6)”.
